Consider 24 molecules from patent US12187681B2 (Shanghai East Hospital, priority 2019, dated 2025).

Broadly, the inhibition is how much of the control response was suppressed.

Format in all cases: cell-based
In series [1] the target is T1, hERG (human ether-a-go-go related gene potassium channel, KCNH2) (Homo sapiens, UniProt Q12809).
T1 construct: expressed in transfected cells; host or cells: HEK293
Nature of the series: hERG channel whole-cell patch clamp (Ion Channel Activity Measurement). Particulars: human, room temperature; for inhibition at 1 μM: pH 7.4, 1 μM test article; for inhibition at 10 μM: pH 7.4, 10 μM test article. In a few lines: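 HEK293 cells stably expressing hERG (NM_000238) were recorded by whole-cell patch clamp at 23-25° C. Holding potential −80 mV, step to 30 mV for 2.5 s, tail currents at −50 mV for 4 s, pulses every 10 s. Each concentration was perfused low to high for 5 min or to steady state, with each cell as its own control.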
A general note: hERG is a cardiac potassium channel; its block is linked to QT prolongation.

In series [2] the target is T2, CaV1.2 (L-type voltage-dependent calcium channel; CACNA1C, CACNB2, CACNA2D1) (Homo sapiens, UniProt Q13936).
T2 construct: expressed in transfected cells; host or cells: CHO
T2 sequence (Q13936 1-2138 isoform Q13936-12): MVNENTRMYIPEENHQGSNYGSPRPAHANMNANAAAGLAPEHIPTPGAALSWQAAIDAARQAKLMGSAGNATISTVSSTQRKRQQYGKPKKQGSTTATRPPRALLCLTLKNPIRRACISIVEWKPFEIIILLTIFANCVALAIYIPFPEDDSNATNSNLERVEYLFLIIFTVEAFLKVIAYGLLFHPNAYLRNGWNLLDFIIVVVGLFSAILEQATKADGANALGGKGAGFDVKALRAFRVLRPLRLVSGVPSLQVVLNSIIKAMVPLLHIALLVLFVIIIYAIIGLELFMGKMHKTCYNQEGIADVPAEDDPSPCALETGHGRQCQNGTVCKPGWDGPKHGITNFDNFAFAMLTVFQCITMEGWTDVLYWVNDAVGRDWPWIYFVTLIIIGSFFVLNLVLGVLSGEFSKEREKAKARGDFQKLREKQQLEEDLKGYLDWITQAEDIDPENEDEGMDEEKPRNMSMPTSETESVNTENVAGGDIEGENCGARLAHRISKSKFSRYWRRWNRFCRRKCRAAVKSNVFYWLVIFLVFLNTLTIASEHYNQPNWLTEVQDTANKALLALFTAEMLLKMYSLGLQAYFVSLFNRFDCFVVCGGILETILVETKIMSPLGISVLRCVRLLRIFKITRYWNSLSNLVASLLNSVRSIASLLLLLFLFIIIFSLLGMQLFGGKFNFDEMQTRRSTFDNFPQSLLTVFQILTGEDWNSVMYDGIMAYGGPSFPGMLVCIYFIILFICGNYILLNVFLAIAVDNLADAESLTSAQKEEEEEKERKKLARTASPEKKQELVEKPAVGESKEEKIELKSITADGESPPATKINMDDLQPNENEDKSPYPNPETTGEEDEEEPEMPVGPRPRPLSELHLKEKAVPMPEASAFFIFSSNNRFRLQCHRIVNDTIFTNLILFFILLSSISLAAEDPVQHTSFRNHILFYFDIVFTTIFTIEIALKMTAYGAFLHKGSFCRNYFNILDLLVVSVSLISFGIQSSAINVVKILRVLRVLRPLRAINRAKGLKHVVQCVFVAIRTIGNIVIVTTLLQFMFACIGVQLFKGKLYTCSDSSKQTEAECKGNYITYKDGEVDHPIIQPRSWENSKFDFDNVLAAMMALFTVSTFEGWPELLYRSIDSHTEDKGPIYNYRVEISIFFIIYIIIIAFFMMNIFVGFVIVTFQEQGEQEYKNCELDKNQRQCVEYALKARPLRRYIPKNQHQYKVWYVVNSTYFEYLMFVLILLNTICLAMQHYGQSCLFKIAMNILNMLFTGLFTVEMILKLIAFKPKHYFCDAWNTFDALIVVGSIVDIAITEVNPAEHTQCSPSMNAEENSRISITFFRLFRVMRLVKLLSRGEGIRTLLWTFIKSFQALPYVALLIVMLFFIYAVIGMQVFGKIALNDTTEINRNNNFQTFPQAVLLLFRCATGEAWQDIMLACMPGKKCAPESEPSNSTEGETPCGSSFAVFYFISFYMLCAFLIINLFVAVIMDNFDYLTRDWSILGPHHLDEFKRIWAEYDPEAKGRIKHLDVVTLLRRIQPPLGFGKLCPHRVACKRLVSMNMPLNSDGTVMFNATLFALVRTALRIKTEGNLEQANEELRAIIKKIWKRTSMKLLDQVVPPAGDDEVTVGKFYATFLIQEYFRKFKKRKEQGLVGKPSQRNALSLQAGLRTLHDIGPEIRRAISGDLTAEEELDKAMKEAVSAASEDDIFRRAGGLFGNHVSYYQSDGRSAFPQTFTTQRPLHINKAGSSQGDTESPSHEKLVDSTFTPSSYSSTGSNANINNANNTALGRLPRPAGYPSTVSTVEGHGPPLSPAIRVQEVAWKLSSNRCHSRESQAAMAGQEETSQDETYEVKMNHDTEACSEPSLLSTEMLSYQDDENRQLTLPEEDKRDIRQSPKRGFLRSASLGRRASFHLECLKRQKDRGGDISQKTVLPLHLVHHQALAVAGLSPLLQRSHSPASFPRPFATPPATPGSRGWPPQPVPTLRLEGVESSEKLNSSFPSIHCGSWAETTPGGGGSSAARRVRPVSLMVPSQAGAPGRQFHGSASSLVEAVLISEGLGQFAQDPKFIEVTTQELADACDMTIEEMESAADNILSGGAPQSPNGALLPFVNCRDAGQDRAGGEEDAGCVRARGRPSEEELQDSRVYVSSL
T2 sequence (Q08289 1-605 isoform Q08289-2 partner): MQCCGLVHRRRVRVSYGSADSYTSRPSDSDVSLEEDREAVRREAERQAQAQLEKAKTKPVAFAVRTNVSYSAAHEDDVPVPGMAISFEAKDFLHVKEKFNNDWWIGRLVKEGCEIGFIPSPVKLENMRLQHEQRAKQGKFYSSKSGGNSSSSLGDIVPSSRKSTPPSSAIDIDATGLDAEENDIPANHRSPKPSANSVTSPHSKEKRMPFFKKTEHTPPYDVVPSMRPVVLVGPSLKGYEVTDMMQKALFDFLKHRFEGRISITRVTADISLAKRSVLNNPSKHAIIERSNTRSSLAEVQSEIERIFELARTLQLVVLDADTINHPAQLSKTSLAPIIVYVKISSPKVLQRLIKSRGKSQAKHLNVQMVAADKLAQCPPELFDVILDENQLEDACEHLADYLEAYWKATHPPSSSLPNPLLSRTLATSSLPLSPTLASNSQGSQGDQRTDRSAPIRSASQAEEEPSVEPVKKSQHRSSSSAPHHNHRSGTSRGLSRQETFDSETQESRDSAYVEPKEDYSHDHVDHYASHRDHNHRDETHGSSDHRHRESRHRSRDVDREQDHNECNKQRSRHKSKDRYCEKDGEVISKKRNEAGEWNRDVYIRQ
T2 sequence (P54289 25-1091 isoform P54289-2 partner limits assumed): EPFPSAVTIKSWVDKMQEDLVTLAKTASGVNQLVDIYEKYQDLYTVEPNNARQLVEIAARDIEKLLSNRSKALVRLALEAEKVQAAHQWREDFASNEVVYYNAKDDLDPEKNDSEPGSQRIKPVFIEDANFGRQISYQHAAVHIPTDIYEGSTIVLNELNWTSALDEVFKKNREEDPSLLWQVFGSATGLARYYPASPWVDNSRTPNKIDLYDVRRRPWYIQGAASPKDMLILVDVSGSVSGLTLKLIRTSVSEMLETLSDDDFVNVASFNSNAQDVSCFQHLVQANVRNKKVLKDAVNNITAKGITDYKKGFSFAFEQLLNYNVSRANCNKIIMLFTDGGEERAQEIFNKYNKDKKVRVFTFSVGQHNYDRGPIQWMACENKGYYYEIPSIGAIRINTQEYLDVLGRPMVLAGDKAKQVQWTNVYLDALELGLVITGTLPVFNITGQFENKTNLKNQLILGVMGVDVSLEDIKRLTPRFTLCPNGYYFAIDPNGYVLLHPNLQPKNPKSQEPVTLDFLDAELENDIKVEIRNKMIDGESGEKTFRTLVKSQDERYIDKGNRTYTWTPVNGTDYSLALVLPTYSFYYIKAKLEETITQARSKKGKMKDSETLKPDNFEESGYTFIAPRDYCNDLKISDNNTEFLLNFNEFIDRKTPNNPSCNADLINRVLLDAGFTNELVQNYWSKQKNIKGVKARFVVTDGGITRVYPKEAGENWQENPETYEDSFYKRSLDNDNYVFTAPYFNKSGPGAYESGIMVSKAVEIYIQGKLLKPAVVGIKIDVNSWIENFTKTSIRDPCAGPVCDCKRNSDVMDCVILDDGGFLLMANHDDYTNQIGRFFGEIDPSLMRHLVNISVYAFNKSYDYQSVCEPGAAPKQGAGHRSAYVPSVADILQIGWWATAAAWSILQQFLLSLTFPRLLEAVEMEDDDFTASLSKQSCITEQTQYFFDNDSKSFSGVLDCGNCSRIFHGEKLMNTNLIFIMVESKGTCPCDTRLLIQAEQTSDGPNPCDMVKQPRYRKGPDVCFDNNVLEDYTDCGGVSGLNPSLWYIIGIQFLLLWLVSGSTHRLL
T2 sequence (P54289 957-1103 partner limits assumed): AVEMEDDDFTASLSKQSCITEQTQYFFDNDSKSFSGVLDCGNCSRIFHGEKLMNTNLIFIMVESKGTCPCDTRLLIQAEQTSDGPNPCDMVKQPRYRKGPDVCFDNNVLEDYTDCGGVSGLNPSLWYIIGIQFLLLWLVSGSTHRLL
Put plainly: CaV1.2 channel whole-cell patch clamp (Ion Channel Activity Measurement). The conditions noted are these: human, room temperature; for inhibition at 5 min, 1 μM: pH 7.4, 1 μM test article; for inhibition at 5 min, 10 μM: pH 7.4, 10 μM test article, read-out: CaV 1.2 10 μM (ion-channel inhibition). In a few lines: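 Whole-cell patch clamp was run on CHO cells stably expressing CACNA1C/CACNB2/CACNA2D1 at 23–25 °C, with 10 mM CaCl2 TEA bath (pH 7.4) and CsCl pipette solution (pH 7.2). Currents were evoked from −80 mV to +10 mV for 0.3 s every 20 s without leak subtraction. Ascending concentrations were each applied for 5 min or until steady state.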
For orientation: Patch clamp records ionic current or voltage across a cell membrane.

The target of series [3] is T3, Iks potassium channel (KCNQ1/KCNE1) (Homo sapiens, UniProt P51787).
T3 construct: expressed in transfected cells; host or cells: CHO
Put plainly: Iks channel whole-cell patch clamp (Ion Channel Activity Measurement). Particulars: human, CHO cells stably expressing Iks channel (KCNQ1 and KCNE1), room temperature; for inhibition at 5 min, 1 μM: pH 7.4, 1 μM test article; for inhibition at 5 min, 10 μM: pH 7.4, 10 μM test article.
Protocol: CHO cell line stably expressing Iks potassium voltage-gated channel subfamily Q member 1(KCNQ1) and potassium voltage-gated channel subfamily E regulatory subunit 1 (KCNE1), cDNA strictly similar to GenBank accession number: NM_000218 and NM_000219
Cells expressing channels were cultured in medium supplemented with 20% FBS in HAM'S F12 culture dish. Cells grew in a humidified incubator at 37° C. under 5% carbon dioxide. To passage cells, remove poor medium and rinse the cells once with PBS 1X. […] Place plate on a 37° C. warming incubator 5 min. As soon as cells are detached, add 5 ml of 37° C. complete medium. Draw cell suspension into a sterile pipet and homogenize cells gently to dissociate cells aggregates. Amplify or maintain the cells by seeding 2.5*105 cells in a 6 cm dish (final volume: 5 ml). To maintain electrophysiological performances, cell density must not exceed 80%. On the day before patch clamp experiment, 3*103 cells were seeded on coverslips in the 24-well plate and incubated at 37° C. in 5% carbon dioxide.
Extracellular solution (mM): 140 NaCl, 2.5 KCl, 1 MgCl2, 2 CaCl2, 5 Glucose, 10 HEPES, pH=7.4 with NaOH.
Pipette solution (mM): 120 K-aspartic, 10 HEPES, 5 MgCl2, 5 EGTA, 4 Na2-ATP 0.3 Na2-GTP, 14 mM Phosphocreatine disodium salt, 20 u/mL Creatine phosphor kinse pH 7.2 with KOH
Glass pipette (BF150-86-10, Sutter Instruments) was made by puller (P97, Sutter Instruments). The glass pipette was manipulated using Micro-manipulator (Carm-C-S, MCI Instruments) under the microscope (AE31EF-INV, Motic). After touching the cell, a slight suction was applied to achieve high seal (GΩ). Fast capacitance (in pF) compensation was made after high seal was achieved; after achieving high seal, the membrane was broken, Cell capacitance (in pF) compensation was made from whole-cell capacitance compensation after the whole cell mode was achieved. No leak subtraction was made.
Cell was incubated with the test article for 5 minutes, or until the current reached a steady-state level. Multiple concentrations of test article were tested. The test articles were applied gradually from low to high concentration. The test and control solutions were flown into a recording chamber mounted on the stage of an inverted microscope via a gravity-fed solution delivery system. During the experiment, solutions were withdrawn from the recording chamber by vacuum aspiration. Each concentration was tested at multiple times. Each cell acted as its own control. All tests were performed at room temperature (23-25° C.).
IKs current was measured using a pulse protocol consisting of −80 mV holding potential increment up to +60 mV over a period of 5 seconds. And then quickly repolarizedat −40 mV and maintained for 4 seconds.

[4] abbreviates: HEK293 cells expressing the human ERG potassium channel.

T1 sequence (Q12809 whole entry): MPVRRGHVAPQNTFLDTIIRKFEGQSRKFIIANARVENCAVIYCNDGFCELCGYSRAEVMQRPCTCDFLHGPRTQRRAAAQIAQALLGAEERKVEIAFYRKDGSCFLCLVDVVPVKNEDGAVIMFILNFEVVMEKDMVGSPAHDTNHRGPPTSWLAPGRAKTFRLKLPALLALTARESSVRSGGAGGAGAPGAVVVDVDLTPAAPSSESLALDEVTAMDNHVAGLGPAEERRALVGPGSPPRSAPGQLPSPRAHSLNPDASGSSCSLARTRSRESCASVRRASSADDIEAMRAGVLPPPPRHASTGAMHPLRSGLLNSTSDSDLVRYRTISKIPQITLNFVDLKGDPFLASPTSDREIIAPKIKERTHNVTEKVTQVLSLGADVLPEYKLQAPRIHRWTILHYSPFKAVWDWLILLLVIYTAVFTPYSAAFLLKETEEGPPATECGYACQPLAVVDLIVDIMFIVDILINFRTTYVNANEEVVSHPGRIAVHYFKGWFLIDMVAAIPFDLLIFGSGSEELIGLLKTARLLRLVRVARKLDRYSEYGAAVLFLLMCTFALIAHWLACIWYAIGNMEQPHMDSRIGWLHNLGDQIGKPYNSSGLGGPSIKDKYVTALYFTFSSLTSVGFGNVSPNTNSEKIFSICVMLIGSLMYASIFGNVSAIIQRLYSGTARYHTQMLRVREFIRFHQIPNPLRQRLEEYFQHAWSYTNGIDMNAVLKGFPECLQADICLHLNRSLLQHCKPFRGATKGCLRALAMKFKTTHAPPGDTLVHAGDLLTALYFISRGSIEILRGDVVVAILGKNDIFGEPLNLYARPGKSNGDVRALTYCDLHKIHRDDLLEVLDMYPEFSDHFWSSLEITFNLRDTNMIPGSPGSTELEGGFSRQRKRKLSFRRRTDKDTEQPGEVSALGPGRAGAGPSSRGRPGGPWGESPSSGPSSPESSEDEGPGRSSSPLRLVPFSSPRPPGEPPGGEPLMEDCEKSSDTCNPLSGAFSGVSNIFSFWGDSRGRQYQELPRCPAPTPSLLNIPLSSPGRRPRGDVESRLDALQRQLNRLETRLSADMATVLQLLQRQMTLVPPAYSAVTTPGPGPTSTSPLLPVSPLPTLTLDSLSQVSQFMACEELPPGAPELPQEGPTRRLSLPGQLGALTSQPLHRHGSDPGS

Turning to `Oc1ccc2ccccc2c1Cc1c(O)ccc2ccccc12` [Compound A001, 1,1′-methylenebis(naphthalen-2-ol)], in series [1] (setting [4]), the inhibition at 1 μM was < 25% and the inhibition at 10 μM is 75 to 100%. In series [2], the inhibition at 5 min, 1 μM is < 25% and the inhibition at 5 min, 10 μM was 75 to 100%. In series [3], the inhibition at 5 min, 1 μM was 50 to 75% and the inhibition at 5 min, 10 μM was 75 to 100%.
In series [1] (setting [4]), `CN(c1c(O)ccc2ccccc12)c1c(O)ccc2ccccc12` [Compound A003, 1,1′-(methylazanediyl)bis(naphthalen-2-ol)] registered an inhibition at 1 μM of 25 to 50% and an inhibition at 10 μM of 75 to 100%. Further, in series [2], the inhibition at 5 min, 1 μM is < 25% and the inhibition at 5 min, 10 μM is 25 to 50%. Further, in series [3], the inhibition at 5 min, 1 μM lay within 25 to 50% and the inhibition at 5 min, 10 μM fell in the range of 50 to 75%.
For the molecule `O=S(=O)(c1c(O)ccc2ccccc12)c1c(O)ccc2ccccc12` [Compound A005, 1,1′-sulfonylbis(naphthalen-2-ol)], in series [3], the inhibition at 5 min, 1 μM was 25 to 50% and the inhibition at 5 min, 10 μM was 25 to 50%.
Take `[O-][S+](c1c(O)ccc2ccccc12)c1c(O)ccc2ccccc12` [Compound A006, 1,1′-sulfinylbis(naphthalen-2-ol)]: in series [1] (setting [4]), the inhibition at 1 μM was < 25% and the inhibition at 10 μM is < 25%. For the same molecule, in series [2], the inhibition at 5 min, 1 μM was < 25% and the inhibition at 5 min, 10 μM was < 25%. Further, in series [3], the inhibition at 5 min, 1 μM is < 25% and the inhibition at 5 min, 10 μM was in the range of 25 to 50%.
With `COc1ccc2ccccc2c1Cc1c(O)ccc2ccccc12` [Compound A014, 1-((2-methoxynaphthalen-1-yl)methyl)naphthalen-2-ol], in series [1] (setting [4]), the inhibition at 1 μM was < 25% and the inhibition at 10 μM was in the range of 75 to 100%. Also, in series [2], the inhibition at 5 min, 1 μM was < 25% and the inhibition at 5 min, 10 μM lay within 50 to 75%. Moreover, in series [3], the inhibition at 5 min, 1 μM is < 25% and the inhibition at 5 min, 10 μM is < 25%.
In the case of `COc1ccc2ccccc2c1Cc1c(OC)ccc2ccccc12` [Compound A015, bis(2-methoxynaphthalen-1-yl)methane], in series [3], the inhibition at 5 min, 1 μM was < 25% and the inhibition at 5 min, 10 μM is < 25%.
In the case of `Oc1ccccc1Cc1ccccc1O` [Compound A016, 2,2′-methylenediphenol], in series [3], the inhibition at 5 min, 1 μM was < 25% and the inhibition at 5 min, 10 μM was < 25%.
On to `O=S(=O)(Nc1ccc2ccccc2c1Cc1c(O)ccc2ccccc12)c1ccccc1` [Compound A026, N-(1-((2-hydroxynaphthalen-1-yl)methyl)naphthalen-2-yl)benzenesulfonamide], for which, in series [1] (setting [4]), the inhibition at 1 μM was < 25% and the inhibition at 10 μM fell in the range of 25 to 50%. In series [2], the inhibition at 5 min, 1 μM was < 25% and the inhibition at 5 min, 10 μM was in the range of 75 to 100%. In series [3], this molecule gave an inhibition at 5 min, 1 μM of 75 to 100% and an inhibition at 5 min, 10 μM of 75 to 100%.
In the case of `Cc1cc2ccccc2c(Cc2c(O)ccc3ccccc23)c1O` [Compound A031, 1-((2-hydroxynaphthalen-1-yl)methyl)-3-methylnaphthalen-2-ol], in series [1] (setting [4]), the inhibition at 1 μM was < 25% and the inhibition at 10 μM lay within 50 to 75%. Further, in series [2], the inhibition at 5 min, 1 μM is < 25% and the inhibition at 5 min, 10 μM is 25 to 50%. In series [3], the inhibition at 5 min, 1 μM is < 25% and the inhibition at 5 min, 10 μM is 50 to 75%.
Consider `COc1ccc2ccccc2c1C(O)c1c(OC)ccc2ccccc12` [Compound A040, bis(2-methoxynaphthalen-1-yl)methanol], for which, in series [3], the inhibition at 5 min, 1 μM is < 25% and the inhibition at 5 min, 10 μM was 25 to 50%.
`Oc1ccc2ccccc2c1Cc1cccc2ccccc12` [Compound A052, 1-(naphthalen-1-ylmethyl)naphthalen-2-ol]: in series [1] (setting [4]), the inhibition at 1 μM is < 25% and the inhibition at 10 μM was in the range of 75 to 100%. Further, in series [2], the inhibition at 5 min, 1 μM is < 25% and the inhibition at 5 min, 10 μM is 75 to 100%. In series [3], this molecule gave an inhibition at 5 min, 1 μM of 25 to 50%.
Consider `CCN(CC)CCOc1ccc2ccccc2c1Nc1c(OC)ccc2ccccc12` [Compound A111-I-1, 2-(2-(diethylamino)ethoxy)-N-(2-methoxynaphthalen-1-yl)naphthalen-1-amine], for which, in series [1] (setting [4]), the inhibition at 1 μM lay in the range of 75 to 100% and the inhibition at 10 μM was 75 to 100%. Also, the inhibition at 5 min, 1 μM in series [2] is < 25%. Moreover, in series [3], the inhibition at 5 min, 1 μM was < 25% and the inhibition at 5 min, 10 μM lay in the range of 75 to 100%.
With `Oc1ccc2ccccc2c1Cc1c(OCCN2CCCC2)ccc2ccccc12` [Compound A129, 1-((2-(2-(pyrrolidin-1-yl)ethoxy)naphthalen-1-yl)methyl)naphthalen-2-ol], the inhibition at 1 μM in series [1] (setting [4]) fell in the range of 75 to 100%. Moreover, the inhibition at 5 min, 1 μM in series [2] and in series [3] was 25 to 50% in each case. Besides, the inhibition at 5 min, 10 μM in series [2] and in series [3] was 75 to 100% throughout.
As to `CCOc1ccc2ccccc2c1Cc1c(OCCN2CCCC2)ccc2ccccc12` [Compound A255, 1-(2-((1-((2-ethoxynaphthalen-1-yl)methyl)naphthalen-2-yl)oxy)ethyl)pyrrolidine], in series [1] (setting [4]), the inhibition at 1 μM is 75 to 100% and the inhibition at 10 μM lay within 75 to 100%. Moreover, in series [2], the inhibition at 5 min, 1 μM is < 25% and the inhibition at 5 min, 10 μM lay in the range of 75 to 100%.
Take `CC(C)Oc1ccc2ccccc2c1Cc1c(OCCN2CCCC2)ccc2ccccc12` [Compound A256, 1-(2-((1-((2-isopropoxynaphthalen-1-yl)methyl)naphthalen-2-yl)oxy)ethyl)pyrrolidine]: in series [1] (setting [4]), the inhibition at 1 μM is 50 to 75% and the inhibition at 10 μM fell in the range of 75 to 100%. In series [2], the inhibition at 5 min, 1 μM was < 25% and the inhibition at 5 min, 10 μM lay in the range of 75 to 100%.
For `COCCOc1ccc2ccccc2c1Cc1c(OCCN2CCCC2)ccc2ccccc12` [Compound A258, 1-(2-((1-((2-(2-methoxyethoxy)naphthalen-1-yl)methyl)naphthalen-2-yl)oxy)ethyl)pyrrolidine], in series [1] (setting [4]), the inhibition at 1 μM lay in the range of 75 to 100% and the inhibition at 10 μM was 75 to 100%. Besides, in series [2], the inhibition at 5 min, 1 μM was < 25% and the inhibition at 5 min, 10 μM was in the range of 75 to 100%.
As for `CN1CCC(COc2ccc3ccccc3c2Cc2c(O)ccc3ccccc23)C1` (stereo not shown) [Compound A262, 1-((2-((1-methylpyrrolidin-3-yl)methoxy)naphthalen-1-yl)methyl)naphthalen-2-ol], in series [1] (setting [4]), the inhibition at 1 μM fell in the range of 75 to 100% and the inhibition at 10 μM fell in the range of 75 to 100%. Also, in series [2], the inhibition at 5 min, 1 μM is < 25% and the inhibition at 5 min, 10 μM is 75 to 100%.
For the molecule `COc1ccc2ccccc2c1Cc1c(OCC2CCNCC2)ccc2ccccc12` [Compound A271, 4-(((1-((2-methoxynaphthalen-1-yl)methyl)naphthalen-2-yl)oxy)methyl)piperidine], in series [1] (setting [4]), the inhibition at 1 μM lay in the range of 75 to 100% and the inhibition at 10 μM fell in the range of 75 to 100%. For the same molecule, the inhibition at 5 min, 1 μM in series [2] was in the range of 50 to 75%.
In series [1] (setting [4]), `CCOCOc1ccc2ccccc2c1Cc1c(OCC2CCNCC2)ccc2ccccc12` [Compound A279, 4-(((1-((2-(ethoxymethoxy)naphthalen-1-yl)methyl)naphthalen-2-yl)oxy)methyl)piperidine] gave an inhibition at 1 μM of 75 to 100% and an inhibition at 10 μM of 75 to 100%. Further, in series [2], the inhibition at 5 min, 1 μM was < 25% and the inhibition at 5 min, 10 μM was in the range of 75 to 100%.
In turn, `CCN(CC)CC(=O)Nc1ccc2ccccc2c1Cc1c(OC)ccc2ccccc12` [Compound A284, 2-(diethylamino)-N-(1-((2-methoxynaphthalen-1-yl)methyl)naphthalen-2-yl)acetamide] had an inhibition at 1 μM in series [1] (setting [4]) of 25 to 50%. Moreover, in series [2], the inhibition at 5 min, 1 μM was < 25% and the inhibition at 5 min, 10 μM is < 25%.
The molecule `Oc1ccc2ccccc2c1Cc1c(OCCC2CCNCC2)ccc2ccccc12` [Compound A286, 1-((2-(2-(piperidin-4-yl)ethoxy)naphthalen-1-yl)methyl)naphthalen-2-ol] returned an inhibition at 1 μM in series [1] (setting [4]) of 75 to 100%. Moreover, in series [2], the inhibition at 5 min, 1 μM is < 25% and the inhibition at 5 min, 10 μM was in the range of 75 to 100%.
In series [1] (setting [4]), `CCN(CC)CCOc1ccc2ccccc2c1Cc1c(OCc2ccccc2)ccc2ccccc12` [Compound A290, 2-((1-((2-(benzyloxy)naphthalen-1-yl)methyl)naphthalen-2-yl)oxy)-N,N-diethylethan-1-amine] returned an inhibition at 1 μM of 75 to 100% and an inhibition at 10 μM of 75 to 100%. Also, in series [2], the inhibition at 5 min, 1 μM is 25 to 50% and the inhibition at 5 min, 10 μM lay within 50 to 75%.
In series [1] (setting [4]), `c1ccc(COc2ccc3ccccc3c2Cc2c(OCCN3CCCC3)ccc3ccccc23)cc1` [Compound A291, 1-(2-((1-((2-(benzyloxy)naphthalen-1-yl)methyl)naphthalen-2-yl)oxy)ethyl)pyrrolidine] returned an inhibition at 1 μM of 75 to 100%. For the same molecule, the inhibition at 5 min, 1 μM in series [2] was < 25%.
In series [1], `COc1ccc2ccccc2c1Cc1c(COCCN2CCCC2)ccc2ccccc12` [Compound A296, 1-(2-((1-((2-methoxynaphthalen-1-yl)methyl)naphthalen-2-yl)methoxy)ethyl)pyrrolidine] came in with an inhibition at 1 μM of 75 to 100%. In series [2], the inhibition at 5 min, 1 μM is < 25% and the inhibition at 5 min, 10 μM is 75 to 100%.
